Measured values from PMC6006285, “Specific stereochemistry of OP-1074 disrupts estrogen receptor alpha helix 12 and confers pure antiestrogenic activity” (Nature Communications, 2018).
Like-named read-outs stand apart in the source and are kept apart here.

Assays:
[1] = system: AP activity in Ishikawa uterine cells; assay: Alkaline phosphatase (AP) assay, agonist mode (absence of E2); type: cell-based, human
Procedure: Our primary screen to distinguish pure antiestrogens from SERMs was induction of alkaline phosphatase (AP) activity in Ishikawa uterine cells. […] The reference SERM used in our screen was endoxifen (N-desmethyl-4-hydroxytamoxifen), the most abundant bioactive metabolite of tamoxifen.
Shown is a representative figure analyzed and presented as above.
At least 4 h later cells were treated with antiestrogens and media was diluted to 2.5% stripped FBS. Cells were incubated for 3 days, media removed and plates frozen at −80 °C. Thawed plates were incubated with a chromogenic substrate of AP, p-nitrophenyl phosphate (ThermoFisher Scientific, #36721), for 40–60 min at 40 °C, and absorbance read at 405 nm on the Varioskan Lux multimodal plate reader (ThermoFisher Scientific, #VLBL00D0).

[2] = system: estrogen responsive reporter gene, ERE-tk109-Luc, in MCF-7 cells; assay: Inhibition of E2-stimulated transcription of ERE-tk109-Luc reporter gene in MCF-7 cells; type: cell-based; conditions: Homo sapiens
[3] = biological target: T1, B-isoform of the progesterone receptor (PR-B) (Homo sapiens, UniProt P06401); assay: PRE3X-TATA-Luc reporter in HeLa cells transfected with PR-B; type: cell-based; conditions: alone or + 500 nM MPA, 22 h
T1 construct: HeLa cells were transfected as above but also with plasmids for full length wild; expressed in transfected cells; host or cells: HeLa
T1 sequence (P06401 1-933): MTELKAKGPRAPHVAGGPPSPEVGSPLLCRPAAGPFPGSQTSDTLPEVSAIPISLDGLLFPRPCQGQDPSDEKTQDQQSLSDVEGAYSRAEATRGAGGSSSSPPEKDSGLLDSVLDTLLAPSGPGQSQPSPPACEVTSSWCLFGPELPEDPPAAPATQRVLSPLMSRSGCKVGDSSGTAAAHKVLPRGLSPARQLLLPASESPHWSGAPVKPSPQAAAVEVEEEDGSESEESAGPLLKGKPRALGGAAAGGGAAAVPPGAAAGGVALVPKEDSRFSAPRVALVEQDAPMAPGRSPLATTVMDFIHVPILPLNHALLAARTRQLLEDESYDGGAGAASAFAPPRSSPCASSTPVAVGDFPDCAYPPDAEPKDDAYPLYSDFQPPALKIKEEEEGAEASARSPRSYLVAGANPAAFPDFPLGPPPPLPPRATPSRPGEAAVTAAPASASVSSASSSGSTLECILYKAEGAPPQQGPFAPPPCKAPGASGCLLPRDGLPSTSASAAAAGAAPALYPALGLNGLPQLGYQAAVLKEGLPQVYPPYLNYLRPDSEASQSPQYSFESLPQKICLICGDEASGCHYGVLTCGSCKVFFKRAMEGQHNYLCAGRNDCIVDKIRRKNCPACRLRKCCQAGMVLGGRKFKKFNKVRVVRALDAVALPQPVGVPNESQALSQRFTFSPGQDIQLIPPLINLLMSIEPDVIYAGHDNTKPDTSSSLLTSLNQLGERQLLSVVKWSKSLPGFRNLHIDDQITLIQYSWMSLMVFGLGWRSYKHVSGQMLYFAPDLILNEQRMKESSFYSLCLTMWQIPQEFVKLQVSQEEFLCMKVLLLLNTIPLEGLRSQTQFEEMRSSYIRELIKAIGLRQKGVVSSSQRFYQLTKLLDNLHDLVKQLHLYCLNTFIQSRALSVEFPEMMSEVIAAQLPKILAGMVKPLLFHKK
Procedure: representative experiment. […]
receptor (AR, (B)), glucocorticoid receptor (GR, (C)), and the B-isoform of the progesterone receptor (PR-B, (D)). HeLa cells were transfected with the designated wild type receptor along with reporter gene PRE3X-TATA-Luc, which is promiscuously activated with known agonists specific for each receptor: R1881 for AR, dexamethasone (Dex) for GR, and medroxyprogesterone acetate (MPA) for PR-B. Each receptor was also dosed with one concentration of known antagonist for each receptor: 32 nM bicalutamide for AR, and 500 nM RU486 for GR and PR. Transfected cells were treated with the designated ligands for 22 hours and luciferase activity assayed. Shown are representative experiments, independently performed at least 3 times. Note that curves for agonists for each receptor were performed in separate experiments. Shown are means with SEM, normalized to percent of 32 nM R1881 for AR, 32 nM Dex for GR, and 0.5 µM MPA for PR-B (except with MPA alone, which was normalized to […]
either ERα or ERβ, and 85 ng ERE-3x-Luc, containing 3 copies of estrogen-response element (ERE) cloned into pGL4.23 luciferase reporter gene containing a minimal TATA promoter […]
hours (1.25% total final charcoal dextran stripped FBS). Bright Glo luciferase reagent (Promega) […]

For `CC1=C(c2ccc(O)cc2)[C@H](c2ccc(OCCN3CC[C@@H](C)C3)cc2)Oc2cc(O)ccc21` [OP-1074], the “Maximal AP activity in agonist mode relative to E2 control” value ([1]; 3 days, absence of E2, normalized to 500 pM E2, representative experiment (Fig. 2a)) was 8%, the “Induction of AP activity (% E2)” value ([1]; Maximum AP activity observed relative to positive control, 500 pM E2, means of n independent experiments ±s.d.) was 10% ± 4.4 (n = 29) % E2 and the IC50 ([2]; MCF7, 22 h, read-out: IC50 inhibition of E2-stimulated transcription (Fig. 3a)) was 3.2 nM. The IC50 ([2]; MCF7, 24 h, read-out: IC50 transcription) was 1.8 ± 0.3 nM and the “Agonist and antagonist activity on PR-B” value [3] was “lacks agonist and antagonist activity”.
